Measured values taken from Sander's compilation of Henry's law constants (doi:10.1016/s0378-3812(02)00087-0).

Assay: Henry solubility constant Hcp at 303 K (mol/(m3 Pa))
Settings: reference: Hovorka et al. (2002)

SMILES | Henry solubility constant Hcp at 303 K
COCC(=O)OC [methyl methoxyacetate] | 2.5
C=CC#N [2-propenenitrile] | 0.076
CCOCCOC(C)=O [2-ethoxyethyl ethanoate] | 3
COC(=O)CC(C)=O [3-oxobutanoic acid, methyl ester] | 6.4
COCCOC(C)=O [2-methoxyethyl ethanoate] | 3

Assay: Henry solubility constant Hcp at 298.15 K (mol/(m3 Pa))
Settings: reference: Hovorka et al. (2002)

SMILES | Henry solubility constant Hcp
OC1CCCC1 [cyclopentanol] | 2.2
CC#N [ethanenitrile] | 0.32
O=C1CCCCC1 [cyclohexanone] | 0.86
CC(C)CO [2-methyl-1-propanol] | 0.67
COC(C)=O [methyl ethanoate] | 0.083
O=C1CCCC1 [cyclopentanone] | 0.82
